Measured values taken from patent US20080193398A1, “Derivatives of Heptaazaphenalene, Methods for Obtaining Them, and Their Use as Protecting Agents Against Uv Radiation” (ISDIN, S.A., priority 2005, published 2008).
Where “and” joins values, the source holds several entries; their conditions need not be identical. Identical values can stand only once.

Columns and labels:
[1] = UV absorption (UV λmax and εmax) in solution; assay type: physicochemical
Source text: There follow some examples where the UV λmax and εmax have been measured according to general methods known for the person skilled in the art by way of non-restrictive illustration of the present invention.

| Compound | UV λmax ([1]; DMSO) | εmax ([1]; DMSO) | other results |
| --- | --- | --- | --- |
| c1ccc(-c2ccc(NC3=NC4=NC(Nc5ccc(-c6ccccc6)cc5)=NC5=NC(Nc6ccc(-c7ccccc7)cc6)=NC(=N3)N45)cc2)cc1 |  |  | melting point: > 310 °C |
| CCCCOC(=O)c1ccc(NC2=NC3=NC(Nc4ccc(C(=O)OCCCC)cc4)=NC4=NC(Nc5ccc(C(=O)OCCCC)cc5)=NC(=N2)N34)cc1 [Example 1, 2,5,8-tris-(4-(butoxycarbonyl)phenylamino)-1,3,4,6,7,9,9b-heptaazaphenalene] |  |  | UV λmax ([1]; CHCl3—EtOH): 325 nm; εmax ([1]; CHCl3—EtOH): 100000 M⁻¹ cm⁻¹; melting point: 289 to 290 °C |
| CCCCC(CC)COC(=O)c1ccc(NC2=NC3=NC(Nc4ccc(C(=O)OCC(CC)CCCC)cc4)=NC4=NC(Nc5ccc(C(=O)OCC(CC)CCCC)cc5)=NC(=N2)N34)cc1 (stereo not drawn) [Example 2, 2,5,8-tris-(4-(2-ethylhexyloxycarbonyl)phenylamino)-1,3,4,6,7,9,9b-heptaazaphenalene] |  |  | UV λmax ([1]; CHCl3): 326 nm; εmax ([1]; CHCl3): 95000 M⁻¹ cm⁻¹; melting point: 183 to 186 °C |
| c1ccn2cc(-c3ccc(NC4=NC5=NC(Nc6ccc(-c7cn8ccccc8n7)cc6)=NC6=NC(Nc7ccc(-c8cn9ccccc9n8)cc7)=NC(=N4)N56)cc3)nc2c1 [Example 3, 2,5,8-tris-(4-(imidazo[1,2-a]pyridin-2-yl)-phenylamino)-1,3,4,6,7,9,9b-heptaazaphenalene] | 353 nm | 75000 M⁻¹ cm⁻¹ |  |
| Cc1cc2c(n1-c1ccc(NC3=NC4=NC(Nc5ccc(-n6c(C)cc7c6CC(C)(C)CC7=O)cc5)=NC5=NC(Nc6ccc(-n7c(C)cc8c7CC(C)(C)CC8=O)cc6)=NC(=N3)N45)cc1)CC(C)(C)CC2=O [Example 4, 2,5,8-tris-(4-(4,5,6,7-tetrahydro-2,6,6-trimethyl-4-oxoindol-1-yl)phenylamine)-1,3,4,6,7,9,9b-heptaazaphenalene] |  |  | UV λmax ([1]; EtOH): 314 nm; εmax ([1]; EtOH): 103000 M⁻¹ cm⁻¹ |
| c1ccc(-c2ccc(NC3=NC4=NC(Nc5ccc(-c6ccccc6)cc5)=NC5=NC(Nc6ccc(-c7ccccc7)cc6)=NC(=N3)N45)cc2)cc1 [Example 6, 2,5,8-tris-(biphenyl-4-ylamino)-1,3,4,6,7,9,9b-heptaazaphenalene] | 333 nm | 103000 M⁻¹ cm⁻¹ |  |
| c1ccc2[nH]c(-c3ccc(NC4=NC5=NC(Nc6ccc(-c7nc8ccccc8[nH]7)cc6)=NC6=NC(Nc7ccc(-c8nc9ccccc9[nH]8)cc7)=NC(=N4)N56)cc3)nc2c1 [Example 7, 2,5,8-tris-(4-(1H-benzo[d]imidazol-2-yl)phenylamino)-1,3,4,6,7,9,9b-heptaazaphenalene] |  |  | UV λmax ([1]; CHCl3-MeOH): 358 nm; εmax ([1]; CHCl3-MeOH): 107000 M⁻¹ cm⁻¹ |
| c1ccc2[nH]c(-c3ccc(NC4=NC5=NC(Nc6ccc(-c7nc8ccccc8[nH]7)cc6)=NC6=NC(Nc7ccc(-c8nc9ccccc9[nH]8)cc7)=NC(=N4)N56)cc3)nc2c1 [Example 8, 2,5,8-tris-(4-(1H-benzo[d]imidazol-2-yl)phenylamino)-1,3,4,6,7,9,9b-heptaazaphenalene] |  |  | melting point: > 275 °C |
| O=C(c1ccccc1)c1ccc(NC2=NC3=NC(Nc4ccc(C(=O)c5ccccc5)cc4)=NC4=NC(Nc5ccc(C(=O)c6ccccc6)cc5)=NC(=N2)N34)cc1 [Example 14, 2,5,8-tris-(4-benzoylphenylamino)-1,3,4,6,7,9,9b-heptaazaphenalene] | 339 nm | 112000 M⁻¹ cm⁻¹ | melting point: > 270 °C |
| c1cnn(-c2ccc(NC3=NC4=NC(Nc5ccc(-n6cccn6)cc5)=NC5=NC(Nc6ccc(-n7cccn7)cc6)=NC(=N3)N45)cc2)c1 [Example 15, 2,5,8-tris-(4-(1H-pyrazol-1-yl)phenylamino)-1,3,4,6,7,9,9b-heptaazaphenalene] | 330 nm | 99000 M⁻¹ cm⁻¹ | melting point: 224 to 227 °C |
| c1ccc2cc(NC3=NC4=NC(Nc5ccc6ccccc6c5)=NC5=NC(Nc6ccc7ccccc7c6)=NC(=N3)N45)ccc2c1 [Example 17, 2,5,8-tris-(naphthalen-2-ylamino)-1,3,4,6,7,9,9b-heptaazaphenalene] | 279 nm and 331 nm | 89000 M⁻¹ cm⁻¹ and 75000 M⁻¹ cm⁻¹ | melting point: > 275 °C |
| CCCCOC(=O)c1ccc(NC2=NC3=NC(Nc4ccc(C(=O)OCCCC)cc4)=NC4=NC(c5cn(C)c6ccccc56)=NC(=N2)N34)cc1 [Example 18] | 337 nm | 65000 M⁻¹ cm⁻¹ |  |
| c1ccc(-c2ccc(OC3=NC4=NC(Oc5ccc(-c6ccccc6)cc5)=NC5=NC(Oc6ccc(-c7ccccc7)cc6)=NC(=N3)N45)cc2)cc1 [Example 19, 2,5,8-tris-(biphenyl-4-yloxy)-1,3,4,6,7,9,9b-heptaazaphenalene] | 262 nm | 81000 M⁻¹ cm⁻¹ |  |
| COc1cccc(NC2=NC3=NC(Nc4cccc(OC)c4)=NC4=NC(Nc5cccc(OC)c5)=NC(=N2)N34)c1 [Example 20, 2,5,8-tris-(3-methoxyphenylamino)-1,3,4,6,7,9,9b-heptaazaphenalene] |  |  | UV λmax ([1]; MeOH): 312 nm; εmax ([1]; MeOH): 62000 M⁻¹ cm⁻¹; melting point: > 275 °C |
| O=[N+]([O-])c1cccc(NC2=NC3=NC(Nc4cccc([N+](=O)[O-])c4)=NC4=NC(Nc5cccc([N+](=O)[O-])c5)=NC(=N2)N34)c1 [Example 35, 2,5,8-tris-(3-nitrophenylamino)-1,3,4,6,7,9,9b-heptaazaphenalene] | 308 nm | 113000 M⁻¹ cm⁻¹ |  |

Further lines, with some results ahead:

| UV λmax ([1]; DMSO) | εmax ([1]; DMSO) | Compound | other results |
| --- | --- | --- | --- |
| 324 nm | 59000 M⁻¹ cm⁻¹ | COc1ccc(NC2=NC3=NC(Nc4ccc(OC)cc4)=NC4=NC(Nc5ccc(OC)cc5)=NC(=N2)N34)cc1 [Example 21, 2,5,8-tris-(4-methoxyphenylamino)-1,3,4,6,7,9,9b-heptaazaphenalene] |  |
| 346 nm | 99000 M⁻¹ cm⁻¹ | COC(=O)c1ccc(-c2ccc(NC3=NC4=NC(Nc5ccc(-c6ccc(C(=O)OC)cc6)cc5)=NC5=NC(Nc6ccc(-c7ccc(C(=O)OC)cc7)cc6)=NC(=N3)N45)cc2)cc1 [Example 23, 2,5,8-tris-(methoxycarbonyl-4′-biphenyl-4-ylamino)-1,3,4,6,7,9,9b-heptaazaphenalene] |  |
| 327 nm | 86000 M⁻¹ cm⁻¹ | Cc1ccc(C2=NC3=NC(c4ccc(C)cc4)=NC4=NC(c5ccc(C)cc5)=NC(=N2)N34)cc1 [Example 25, 2,5,8-tris-(4-methylphenyl)-1,3,4,6,7,9,9b-heptaazaphenalene] |  |
| 360 nm | 60000 M⁻¹ cm⁻¹ | c1ccc(Nc2ccc(NC3=NC4=NC(Nc5ccc(Nc6ccccc6)cc5)=NC5=NC(Nc6ccc(Nc7ccccc7)cc6)=NC(=N3)N45)cc2)cc1 [Example 27, 2,5,8-tris-(4-(phenylamino)phenylamino)-1,3,4,6,7,9,9b-heptaazaphenalene] |  |
| 265 nm | 92000 M⁻¹ cm⁻¹ | CCCCC(CC)CNC1=NC2=NC(NCC(CC)CCCC)=NC3=NC(NCC(CC)CCCC)=NC(=N1)N23 (stereo not drawn) [Example 29, 2,5,8-tris-(2-ethylhexylamino)-1,3,4,6,7,9,9b-heptaazaphenalene] |  |
| 288 nm and 354 nm | 66000 M⁻¹ cm⁻¹ and 113000 M⁻¹ cm⁻¹ | CCCCC(CC)COC(=O)/C=C/c1ccc(NC2=NC3=NC(Nc4ccc(/C=C/C(=O)OCC(CC)CCCC)cc4)=NC4=NC(Nc5cccc(/C=C/C(=O)OCC(CC)CCCC)c5)=NC(=N2)N34)cc1 (stereo not drawn) [Example 34, 2-(3-((E)-3-(2-ethylhexyloxy)-3-oxoprop-1-enyl)phenylamino)-5,8-bis-(4-((E) -3-(2-ethylhexyloxy)-3-oxoprop-1-enyl)phenylamino)-1,3,4,6,7,9,9b-heptaazaphenalene] |  |
| 316 nm | 167000 M⁻¹ cm⁻¹ | C(=C\c1cccc(NC2=NC3=NC(Nc4cccc(/C=C/c5ccccc5)c4)=NC4=NC(Nc5cccc(/C=C/c6ccccc6)c5)=NC(=N2)N34)c1)/c1ccccc1 [Example 37, 2,5,8-tris-((3-(E)-styrylphenyl)amino)-1,3,4,6,7,9,9b-heptaazaphenalene] |  |
| 324 nm | 121000 M⁻¹ cm⁻¹ | CCCCCCCCC(CCCCCC)COC(=O)c1ccc(NC2=NC3=NC(Nc4ccc(C(=O)OCC(CCCCCC)CCCCCCCC)cc4)=NC4=NC(Nc5ccc(C(=O)OCC(CCCCCC)CCCCCCCC)cc5)=NC(=N2)N34)cc1 (stereo not drawn) [Example 38, 2,5,8-tris-(4-(^2-hexyldecyloxycarbonyl)phenylamino)-1,3,4,6,7,9,9b-heptaazaphenalene] |  |
| 324 nm | 117000 M⁻¹ cm⁻¹ | CCCCCCCCCCCCCCCCCCOC(=O)c1ccc(NC2=NC3=NC(Nc4ccc(C(=O)OCCCCCCCCCCCCCCCCCC)cc4)=NC4=NC(Nc5ccc(C(=O)OCCCCCCCCCCCCCCCCCC)cc5)=NC(=N2)N34)cc1 [Example 40, 2,5,8-tris-(4-(octadecyloxycarbonyl)phenylamino)-1,3,4,6,7,9,9b-heptaazaphenalene] |  |
| 326 nm | 87000 M⁻¹ cm⁻¹ | CCCCCCCCCCCCOC(=O)c1ccc(NC2=NC3=NC(Nc4ccc(C(=O)OCCCCCCCCCCCC)cc4)=NC4=NC(Nc5ccc(C(=O)OCCCCCCCCCCCC)cc5)=NC(=N2)N34)cc1 [Example 44, 2,5,8-tris-(4-(dodecyloxycarbonyl)phenylamino)-1,3,4,6,7,9,9b-heptaazaphenalene] |  |
| 330 nm | 150000 M⁻¹ cm⁻¹ | CC12CCC(C1)C(C)(C)C2OC(=O)c1ccc(NC2=NC3=NC(Nc4ccc(C(=O)OC5C6(C)CCC(C6)C5(C)C)cc4)=NC4=NC(Nc5ccc(C(=O)OC6C7(C)CCC(C7)C6(C)C)cc5)=NC(=N2)N34)cc1 (stereo not drawn) [Example 45] |  |
| 331 nm | 46000 M⁻¹ cm⁻¹ | c1cc2cc(NC3=NC4=NC(Nc5ccc6[nH]ccc6c5)=NC5=NC(Nc6ccc7[nH]ccc7c6)=NC(=N3)N45)ccc2[nH]1 [Example 46, 2,5,8-tris-(1H-indol-5-ylamino)-1,3,4,6,7,9,9b-heptaazaphenalene] |  |
| 270 nm | 44000 M⁻¹ cm⁻¹ | Cc1cc(N)c(NC2=NC3=NC(Nc4cc(C)c(C)cc4N)=NC4=NC(Nc5cc(C)c(C)cc5N)=NC(=N2)N34)cc1C [Example 48, 2,5,8-tris-(2-amino-4,5-dimethylphenylamino)-1,3,4,6,7,9,9b-heptaazaphenalene] |  |
